Test results published in ChEMBL document CHEMBL1123025, “Acylmorphinans. A novel class of potent analgesic agents” (J Med Chem, 1985).

Key:
Mus musculus [1] = assay: Analgesic activity in mice after oral administration in writhing assay; 13.71-42.00; assay type: functional
Mus musculus [2] = assay: Analgesic activity in mice after subcutaneous administration in writhing assay; 1.21-3.91; assay type: functional; settings: sc
Mus musculus [3] = assay: Analgesic activity in mice after subcutaneous administration in tail-flicking assay; activity value ranges from 3.0 - 5.4; assay type: functional; settings: sc
Opioid receptor = Opioid receptor (Rattus norvegicus, UniProt P33533+P34975+P33535); assay: 50% Inhibition of stereospecific [3H]-naltrexone (10e-9 M) binding towards opiate receptor in rat brain homogenate; assay type: tissue-based
Mus musculus [4] = organism: Mus musculus; assay: animal or person; settings: sc
Description: Analgesic activity in mice after subcutaneous administration in writhing assay; 0.26-0.83

Mus musculus [5] = assay: Analgesic activity in mice after oral administration in tail-flicking assay; 7.22-10.25; assay type: functional
Mus musculus [6] = assay: Analgesic activity in mice after subcutaneous administration in writhing assay; 0.06-0.22; assay type: functional; settings: sc
Mus musculus [7] = assay: Analgesic activity in mice after oral administration in writhing assay; 0.70-2.80; assay type: functional

COc1ccc2c3c1O[C@H]1[C@@H](O)C=C[C@H]4[C@@H](C2)N(C)CC[C@@]341.COc1ccc2c3c1O[C@H]1[C@@H](O)C=C[C@H]4[C@@H](C2)N(C)CC[C@@]341.O.O=P(O)(O)O.O=P(O)(O)O [CODEINE PHOSPHATE]
ED50 (Mus musculus [1]): 24 mg/kg
ED50 (Mus musculus [2]): 2.3 mg/kg

CC(=O)c1ccc2c(c1)[C@@]13CCCC[C@H]1[C@@H](C2)N(C)CC3
ED50 (Mus musculus [3]): 4 mg/kg
IC50 (Opioid receptor): 210 nM

CN1CC[C@]23c4c5ccc(O)c4O[C@H]2[C@@H](O)C=C[C@H]3[C@H]1C5 [MORPHINE]
ED50 (Mus musculus [4]): 0.46 mg/kg

CC(=O)c1ccc2c(c1)C[C@@H]1[C@@H]3CCCC[C@]23CCN1C
IC50 (Opioid receptor): 13000 nM

CC(O)c1ccc2c(c1)[C@@]13CCCC[C@H]1[C@@H](C2)N(C)CC3.Cl (some centres not stated)
IC50 (Opioid receptor): 14 nM

CN1CC[C@]23CCCC[C@H]2[C@H]1Cc1ccc(O)cc13 [LEVORPHANOL]
ED50 (Mus musculus [5]): 8.5 mg/kg
IC50 (Opioid receptor): 0.004 nM
ED50 (Mus musculus [6]): 0.11 mg/kg
ED50 (Mus musculus [7]): 1.4 mg/kg

CC(=O)c1ccc2c(c1)[C@@]13CCCC[C@H]1[C@@H](C2)N(CC1CC1)CC3.Cl
IC50 (Opioid receptor): 70 nM
